Experimental data: patent publication US6303617A, “Serotonin-like 9-substituted hypoxanthine and methods of use” (Neotherapeutics, Inc., priority 1999, dated 2001)

Assays:
total serum cholesterol [1] = experiment: Lowering of total serum cholesterol in mice; assay type: in vivo, mouse; details: 300 mg/kg oral, 24 hours before determination; 5 mice; vs control group; decrease of 15% or more considered significant
Experimental: The activity of N-(2-(5-hydroxyindol-3-yl)ethyl)-3-(6-oxohydropurin-9-yl)propanamide (AIT-202) in lowering total serum cholesterol was tested in mice. Mice (5 mice) were administered N-(2-(5-hydroxyindol-3-yl)ethyl)-3-(6-oxohydropurin-9-yl)propanamide orally at a dosage of 300 mg/kg body weight for 24 hours before cholesterol determination. Total serum cholesterol was determined by standard methods. […] A decrease of 15% or more is considered significant in this test.

HDL cholesterol = HDL cholesterol in serum of Swiss Webster mice fed a high cholesterol or normal diet; assay type: in vivo; details: dosed on days 6 and 7 of diet, serum on day 8; FIG. 5
Experimental: (§1) On days 6 and 7 the mice were given the compound N-(2-(5-hydroxyindol-3-yl)ethyl)-3-(6-oxohydropurin-9-yl)propanamide (AIT-202), a positive control (bezafibrate), or a vehicle. The animals were fasted overnight and on day 8 trunk blood was collected. Total cholesterol and HDL cholesterol were measured in serum.

monoamine oxidase A/B = experiment: Inhibition of monoamine oxidase A/B catalytic activity (mouse brain mitochondria, tyramine substrate); assay type: biochemical
Experimental: Experiments were carried out to determine whether the serotonin analogue N-(2-(5-hydroxyindol-3-yl)ethyl)-3-(6-oxohydropurin-9-yl)propanamide (AIT-202) inhibited monoamine oxidases A and B. These experiments were performed as follows:
Mice (3-5 mice) were sacrificed by cervical dislocation. The brains were isolated and placed immediately in 10 ml cold isolation medium (IM) (500 μM EDTA, 5 mM HEPES, 0.25 M sucrose, and 10 mg/L bovine serum albumin (BSA)). The brains were minced and rinsed twice with 10 mL IM. The brains were then homogenized (5-6 strokes) in 10 mL IM. A volume (20 mL) of IM was then added and the homogenized preparation was centrifuged 8-10 minutes at 600×g at 4° C. The supernatant was transferred to a new tube. […]
For the enzyme assays, 1.0 mL to 1.5 mL 50 mM sodium phosphate, pH 7.4 containing 5 μM scopoletin and 2 U/mL horseradish peroxidase) were aliquoted in the wells of a Falcon 24-well plate (reaction mixture or RM). […] The preincubation was carried out in the Cytofluor® 4000 (PerSeptive Biosystems) and the baseline fluorescence at λex =360 nm and λem =460 nm was recorded. After 6 min, the reading was interrupted and 150-166 μM tyramine (monoamine oxidase A and monoamine oxidase B substrate) or the corresponding amount of water were added according to the plate layout. The reading was continued for approximately 30 minutes at 3-minute intervals. […]

total serum cholesterol [2] = experiment: Total serum cholesterol in Swiss Webster mice fed a high cholesterol or normal diet; assay type: in vivo; details: dosed on days 6 and 7 of diet, serum on day 8; FIG. 5
Experimental: as §1

obese mice = experiment: Control of obesity in naturally obese mice, 14 days oral; assay type: in vivo, mouse; details: naturally obese mice (>45 g), daily oral gavage, three doses, FIG. 4
Experimental: The activity of N-(2-(5-hydroxyindol-3-yl)ethyl)-3-(6-oxohydropurin-9-yl)propanamide (AIT-202) in controlling obesity in mice was tested. Mice from the existing animal colony of NeoTherapeutics (Irvine, Calif.) which were naturally obese (greater than 45 grams in weight) were treated with N-(2-(5-hydroxyindol-3-yl)ethyl)-3-(6-oxohydropurin-9-yl)propanamide daily orally by gavage for 14 days. The mice were dosed with one of three doses of N-(2-(5-hydroxyindol-3-yl)ethyl)-3-(6-oxohydropurin-9-yl)propanamide or vehicle (0.5% methylcellulose). Their weight and food consumption were monitored daily.

O=C(CCn1cnc2c(=O)[nH]cnc21)NCCc1c[nH]c2ccc(O)cc12 [AIT-202, N-(2-(5-hydroxyindol-3-yl)ethyl)-3-(6-oxohydropurin-9-yl)propanamide]
decrease of total serum cholesterol (total serum cholesterol [1]): 18% | effect on HDL cholesterol (HDL cholesterol): raises HDL cholesterol | effect on the catalytic activity of monoamine oxidase A and B (monoamine oxidase A/B; 2-150 μM compound, tyramine substrate, FIGS. 2 and 3): significant effect | IC50 (monoamine oxidase A/B; estimated, mouse brain mitochondrial protein 0.22-0.24 mg/mL, 150-166 μM tyramine, pH 7.4, 37° C.): ~2000 nM | effect on total serum cholesterol (total serum cholesterol [2]): lowers total serum cholesterol | benefit to treatment in obese mice (obese mice): There appears to be benefit to treatment
